Consider 30 compounds from US4966916A (priority 1989, dated 1990).

As a reminder, the IC50 is the point on the concentration scale where inhibition reaches its midpoint. As a reminder, the Kd is a measure of binding affinity in units of concentration. Read a low Kd as higher affinity.

“Also recorded” adds a separate entry of the source. Like-named read-outs stand apart in the source and are kept apart here.

For one series, the system named is rats. The arrangement: species or system Sprague-Dawley male rats. As to conditions: rat, in vivo.
Series [1] has as its system nicotine-induced seizures in rats. As to conditions: rat, in vivo.
Series [2] concerns nicotine mortality in rats. As to conditions: rat, in vivo.
The test system of series [3] is hypertensive action of nicotine in anesthetized rats. As to conditions: rat, in vivo, iv.
Series [4] relates to [3H]-nicotine binding sites in rat brain membranes.
For series [5], the system named is nicotine-induced prostration in rats. The arrangement: species or system Sprague-Dawley male rats. As to conditions: rat, in vivo.
In series [6] the test system is nicotine receptor, rat brain membranes. The format is binding. As to conditions: for IC50: read-out: [3H]-nicotine IC50.
For series [7] the test system is unchanged. The format is binding. As to conditions: for IC50: read-out: [3H]-MCC IC50.
For series [8], the target named is nicotine receptor, rat brain membranes. The format is binding.
The test system of another series is rats or mice. As to conditions: in vivo; cited from earlier work.
Series [9] deals with nicotine receptor, rat brain membranes. The format is binding. The source holds these as a separate data set.
For series [10], the system named is hypertensive action of nicotine in anesthetized rats. Description: animal or person. As to conditions: Rattus norvegicus, iv.
Series [11] concerns nicotinic cholinergic and nicotine-like binding sites in rat brain membranes.
Setting [12] is: read-out: 3H-Nicotine Binding IC50.

As for `CN1CCCC1c1cccnc1` (single isomer, unassigned; (-)) [(-)-nicotine], in the series on rats, the “action on prostration” value is “agonists”; the “behavioral / respiratory effects” value is “deep diaphragmatic breathing and a decreased respiratory rate”. Moreover, the “symptoms” value in [1] was “prostration followed by tremors, fasciculations, cyanosis and labored breathing, and myoclonic seizures”. In addition, in series [1] (1.5 mg/kg), the “Seizures (rats with seizures/total)” value is listed as 10/10. Besides, in series [2] (ip, 3 mg/kg), the “Mortality (dead/total)” value is recorded as 8/10. Moreover, in series [3], the “increase in systolic blood pressure” value is listed as 25%.

As for `CN1CCCC1c1cccnc1` (single isomer, unassigned; (-)) [[^3 H]-nicotine, (-)-[^3 H]-nicotine], the “Bmax, higher affinity site” value in series [4] was 5e-15 mol/mg.

For `CN(C)c1cccnc1` [3-dimethylaminopyridine], in the series with rats, the “action on prostration” value was “agonists”.

With `CN(C)CCOC(=O)c1ccccc1` [DMAE benzoate, dimethylaminoethyl benzoate], in series [1], the “% Antagonism of seizures” value was found to be 45% and the “Seizures (rats with seizures/total)” value is listed as 5/9.

Consider `CN(C)CCOC(N)=O` [DMAE carbamate], for which the “behavioral effect” value in the series with rats is “only a similar effect”.

In the case of `CN(C)CCOC(=O)C1CCCCC1` [DMAE cyclohexylcarboxylate, dimethylaminoethyl cyclohexylcarboxylate], in series [1], the “% Antagonism of seizures” value is reported as 50%, the “Seizures (rats with seizures/total)” value is given as 4/8 and the “seizures” value was “about half of the rats exhibited seizures”.

In the case of `CN(C)CCOC(=O)c1cccnc1` [DMAE nicotinate], the “antagonism of nicotine-induced prostration / nicotine actions” value in series [5] is listed as “next in effectiveness; also recorded: antagonistic to the nicotine-induced prostration”.

Turning to `CCN1CCCC1c1cccnc1` (stereo not shown) [N'-ethyl nornicotine], the “decrease in affinity versus nicotine” value in [6] and in series [7] was 3 fold throughout. The IC50 in series [7] and in series [8] (read-out: 3H-MCC Binding IC50) was 0.1 µM throughout.

With `C[N+]1(C)CCCC1c1cccnc1` (stereo not shown) [N'-methyl nicotonium], the “seizures and mortality relative to nicotine” value in the series on rats or mice was “more potent than nicotine in producing seizures and mortality”.

`CCCN1CCCC1c1cccnc1` (stereo not shown) [N'-propyl nornicotine]: the “decrease in affinity versus nicotine” value in [6] and in [7] was 200 fold throughout.

Regarding `CNC(=O)OC1CCN(Cc2ccccc2)CC1` [N-benzyl-4-piperdyl methylcarbamate], the IC50 in series [9] (setting [12]) and in series [8] (read-out: 3H-MCC Binding IC50) was greater than 100 µM each time.

Consider `C[N+](C)(C)CCOC(=O)c1ccccc1` [TMAE benzoate, benzoylcholine], for which the “effectiveness relative to the DMAE ester” value in [5] turned out to be 5 times. For the same compound, in series [1], the “% Antagonism of seizures” value was found to be 78% and the “Seizures (rats with seizures/total)” value is reported as 1/8. Moreover, in [2], the “% Antagonism of mortality” value came to 63%, the “Mortality (dead/total)” value is 3/10 and the “protection against nicotine mortality” value was 63%.

As to `C[N+](C)(C)CCOC(=O)C1CCCCC1` [TMAE cyclohexylcarboxylate, choline ester of cyclohexylcarboxylic acid], the “% Antagonism of seizures” value in series [1] came out at 78%. For the same compound, in series [1], the “Seizures (rats with seizures/total)” value was 1/8. Besides, the “protection against nicotine mortality” value in [2] was 66%. The ED100 is 5 ± 1.5 mg/kg in series [10] (read-out: Antagonistic dose (±s.d.) to completely block elevation in systolic blood pressure) and 1.5 mg/kg in series [10] (read-out: dose completely reversing increase in systolic blood pressure).

Turning to `C[N+](C)(C)CCOC(=O)Cc1ccccc1` [TMAE phenylacetate], the “antagonism of nicotine-induced prostration / nicotine actions” value in series [5] is on record as “next in effectiveness”.

Take `C[N+](C)(C)CCOC(=O)Nc1ccccc1` [TMAE phenylcarbamate]: the “antagonism of nicotine-induced prostration / nicotine actions” value in [5] is reported as “next in effectiveness”. For the same compound, in series [1], the “% Antagonism of seizures” value is reported as 89%, the “Seizures (rats with seizures/total)” value was 1/9 and the “protection against seizures” value is given as “almost complete protection”. In series [2], the “% Antagonism of mortality” value turned out to be 50%, the “Mortality (dead/total)” value is 4/10 and the “protection against nicotine mortality” value came to 50%.

For `C[N+](C)(C)CCOC(=S)Nc1ccccc1` [TMAE phenylthiocarbamate], in series [5], the “antagonism of nicotine-induced prostration / nicotine actions” value is on record as “next in effectiveness”. In series [2], the “% Antagonism of mortality” value is listed as 63%, the “Mortality (dead/total)” value is 3/10 and the “protection against nicotine mortality” value stood at 63%.

For `C[N+](C)(C)CCOC(=O)CCC(=O)OCC[N+](C)(C)C` [TMAE succinate, succinylcholine], the IC50 in [9] (setting [12]) was 0.8 µM; in series [9] (read-out: IC50 for 3H-nicotine) it was roughly 50 µM; in [8] (read-out: 3H-MCC Binding IC50), 0.7 µM; in series [8] (read-out: IC50 for 3H-MCC), roughly 50 µM.

For the compound `[3H]C([3H])([3H])[N+](C)(C)CCOC(=O)NC` [[^3 H]-MCC, [^3 H]-methylcarbamyl choline], the “Bmax (Scatchard analysis)” value in [11] is 4.0×10^-14 moles/mg protein. In [11] (brain membranes), the “rate constant for association” value turned out to be 300000 M⁻¹ s⁻¹ and the “rate constant for dissociation” value was 0.001 s⁻¹.

Take `CN1[C@@H]2CC[C@H]1C[C@@H](OC(=O)C(CO)c1ccccc1)C2` (stereo partly shown) [atropine]: in series [1], the “% Antagonism of seizures” value is on record as 0% and the “Seizures (rats with seizures/total)” value is 6/6. For the same compound, the “protection against nicotine mortality” value in series [2] was “ineffective”.

For `COC(=O)[C@H]1[C@@H](OC(=O)c2ccccc2)C[C@@H]2CC[C@H]1N2C` [cocaine], in [5], the “antagonism of nicotine-induced prostration / nicotine actions” value is listed as “effectively block nicotine-induced prostration” and the “antagonist activity” value was “inactive”.

`C[N+](C)(C)CCCCCC[N+](C)(C)C` [hexamethonium]: in series [6], the dissociation constant (Kd) is greater than 100 µM. The IC50 in series [6] and in series [7] was greater than 100 µM throughout.

On to `CCN(CC)CC(=O)Nc1c(C)cccc1C` [lidocaine], for which the “antagonist activity” value in series [5] was “inactive”.

As for `CNC(=O)Oc1ccc2c(c1)[C@]1(C)CCN(C)[C@@H]1N2C` [physostigmin], the “antagonist activity” value in series [5] is “inactive”.

`CCN(CC)CCOC(=O)c1ccc(N)cc1` [procaine]: in series [5], the “antagonism of nicotine-induced prostration / nicotine actions” value is recorded as “effectively block nicotine-induced prostration” and the “antagonist activity” value is reported as “antagonists”.

For `CN(C)C(=O)Oc1cccc([N+](C)(C)C)c1` [prostigmin], in series [5], the “antagonist activity” value is “inactive”.

Turning to `CN1[C@@H](CC(=O)c2ccccc2)CCC[C@H]1C[C@H](O)c1ccccc1` [α-lobeline], in [9], the “binding affinity” value is on record as “even greater affinity than (-)-nicotine; also recorded: very high affinity for brain nicotine receptors”. For the same compound, in [5], the “antagonist activity” value is “most effective antagonist in blocking the prostration, seizures, and mortality”; the “dose blocking nicotine-induced prostration” value was 10 nmol. Besides, in [1], the “% Antagonism of seizures” value is recorded as 0/8, the “Seizures (rats with seizures/total)” value is reported as 1/8 and the “protection against seizures” value is “complete protection against seizures”. Also, in [2], the “% Antagonism of mortality” value came to 75%, the “Mortality (dead/total)” value is 2/10 and the “reduction of the mortality” value came out at 75%.

For the compound DMAE naphthoate [DMAE napththoate], the IC50 is 80 µM in series [9] (setting [12]) and 70 µM in series [8] (read-out: 3H-MCC Binding IC50).

Regarding N-benzylpiperidyl methylcarbamate, the IC50 in series [9] (setting [12]) and in series [8] (read-out: 3H-MCC Binding IC50) was greater than 100 µM in each case.

With TMAE naphthoate [TMAE napththoate], the results for the 50% inhibitory concentration (IC50) in [9] (setting [12]) and in series [8] (read-out: 3H-MCC Binding IC50) were 9 µM and 5 µM, respectively.

Take α-bungarotoxin: in series [6], the Kd was greater than 100 µM and the IC50 is greater than 100 µM. Further, the 50% inhibitory concentration (IC50) in series [7] was greater than 100 µM.
